Laboratory results as given in ChEMBL document CHEMBL4373744, “Modifying the lipophilic part of phenylthiazole antibiotics to control their drug-likeness” (Eur J Med Chem, 2020).
≈ marks a conversion by molar mass, not a printed value.

Columns and labels:
Escherichia coli [1] = test: Antimicrobial activity against Escherichia coli JW55031 harboring deltatolC mutant by broth liquid microdilution method; type: functional
Escherichia coli [2] = test: Antimicrobial activity against Escherichia coli BW25113 by broth liquid microdilution method; type: functional
Staphylococcus aureus [3] = test: microbe, parasite or virus in culture; conditions: NRS384
Description: Antimicrobial activity against methicillin-resistant Staphylococcus aureus NRS384 by broth liquid microdilution method

[4] = tested on: Staphylococcus epidermidis; test: Antimicrobial activity against methicillin-resistant Staphylococcus epidermidis NRS101 by broth liquid microdilution method; type: functional
Staphylococcus aureus [5] = test: microbe, parasite or virus in culture; conditions: NRS123
Description: Antimicrobial activity against methicillin-resistant Staphylococcus aureus NRS123 by broth liquid microdilution method

Staphylococcus aureus [6] = test: microbe, parasite or virus in culture; conditions: NRS 107
Description: Antimicrobial activity against methicillin-sensitive Staphylococcus aureus NRS 107 by broth liquid microdilution method

Streptococcus pneumoniae [7] = test: Antimicrobial activity against methicillin-resistant Streptococcus pneumoniae ATCC 700677 by broth liquid microdilution method; type: functional
Staphylococcus aureus [8] = test: microbe, parasite or virus in culture; conditions: NRS119
Description: Antimicrobial activity against methicillin-resistant Staphylococcus aureus NRS119 by broth liquid microdilution method

Staphylococcus aureus [9] = test: Antimicrobial activity against vancomycin-resistant Staphylococcus aureus 10 by broth liquid microdilution method; type: functional
Staphylococcus aureus [10] = test: microbe, parasite or virus in culture; conditions: NRS 385
Description: Antimicrobial activity against methicillin-resistant Staphylococcus aureus NRS 385 by broth liquid microdilution method

Staphylococcus aureus [11] = test: microbe, parasite or virus in culture; conditions: ATCC 6538
Description: Antimicrobial activity against methicillin-sensitive Staphylococcus aureus ATCC 6538 by broth liquid microdilution method

Staphylococcus aureus [12] = test: microbe, parasite or virus in culture; conditions: NRS 386
Description: Antimicrobial activity against methicillin-resistant Staphylococcus aureus NRS 386 by broth liquid microdilution method

Enterococcus faecium = test: Antimicrobial activity against vancomycin-resistant Enterococcus faecium ATCC 700221 by broth liquid microdilution method; type: functional
Streptococcus pneumoniae [13] = test: Antimicrobial activity against cephalosporin-resistant Streptococcus pneumoniae ATCC 51916 by broth liquid microdilution method; type: functional
Listeria monocytogenes = test: Antimicrobial activity against Listeria monocytogenes ATCC 19111 by broth liquid microdilution method; type: functional
Enterococcus faecalis = test: microbe, parasite or virus in culture; conditions: ATCC 51299
Staphylococcus aureus [14] = test: Antimicrobial activity against vancomycin-resistant Staphylococcus aureus 12 by broth liquid microdilution method; type: functional

## C/C(=N\NC(=N)N)c1sc(-c2ccc(OCCCN3CCCC3)cc2)nc1C
Escherichia coli [1]
  MIC: 32 µg/mL (≈ 79.9 µM)
Escherichia coli [2]
  MIC: > 64 µg/mL
Staphylococcus aureus [3]
  MIC: 16 µg/mL (≈ 39.9 µM)

## C/C(=N\NC(=N)N)c1sc(-c2ccc(OCCCN3CCCCC3C)cc2)nc1C (stereo not drawn)
Escherichia coli [1]
  MIC: > 64 µg/mL
Escherichia coli [2]
  MIC: > 64 µg/mL
Staphylococcus aureus [3]
  MIC: 64 µg/mL (≈ 149 µM)

## C/C(=N\NC(=N)N)c1sc(-c2ccc(OCCCN3CCSCC3)cc2)nc1C
Escherichia coli [1]
  MIC: 64 µg/mL (≈ 148 µM)
Escherichia coli [2]
  MIC: > 64 µg/mL
Staphylococcus aureus [3]
  MIC: 32 µg/mL (≈ 74 µM)

## C/C(=N\NC(=N)N)c1sc(-c2ccc(C#CCCN3CCOCC3)cc2)nc1C
Escherichia coli [1]
  MIC: 64 µg/mL (≈ 156 µM)
Escherichia coli [2]
  MIC: > 64 µg/mL
Staphylococcus aureus [3]
  MIC: 32 µg/mL (≈ 77.9 µM)

## C/C(=N\NC(=N)N)c1sc(-c2ccc(OCCCCN3CCN(C)CC3)cc2)nc1C
Escherichia coli [1]
  MIC: 32 µg/mL (≈ 72.1 µM)
Escherichia coli [2]
  MIC: > 64 µg/mL
Staphylococcus aureus [3]
  MIC: 16 µg/mL (≈ 36.1 µM)

## C/C(=N\NC(=N)N)c1sc(-c2ccc(C#CCCN3CCCCC3C)cc2)nc1C (stereo not drawn)
Escherichia coli [1]
  MIC: 32 µg/mL (≈ 75.7 µM)
Escherichia coli [2]
  MIC: > 64 µg/mL
Staphylococcus aureus [3]
  MIC: 16 µg/mL (≈ 37.9 µM)

## C/C(=N\NC(=N)N)c1sc(-c2ccc(OCCCCCN3CCC(C)CC3)cc2)nc1C
Escherichia coli [1]
  MIC: 64 µg/mL (≈ 140 µM)
Escherichia coli [2]
  MIC: > 64 µg/mL
Staphylococcus aureus [3]
  MIC: 32 µg/mL (≈ 70.1 µM)

## C/C(=N\NC(=N)N)c1sc(-c2ccc(OCCCCN3CCC(C)CC3)cc2)nc1C
Escherichia coli [1]
  MIC: 32 µg/mL (≈ 72.3 µM)
Escherichia coli [2]
  MIC: > 64 µg/mL
Staphylococcus aureus [3]
  MIC: 32 µg/mL (≈ 72.3 µM)

## C/C(=N\NC(=N)N)c1sc(-c2ccc(OCCCCN3CCC3)cc2)nc1C
Escherichia coli [1]
  MIC: 16 µg/mL (≈ 39.9 µM)
Escherichia coli [2]
  MIC: > 64 µg/mL
Staphylococcus aureus [3]
  MIC: 8 µg/mL (≈ 20 µM)

## CC(=O)NC[C@H]1CN(c2ccc(N3CCOCC3)c(F)c2)C(=O)O1 [LINEZOLID]
[4]
  MBC: 16 µg/mL (≈ 47.4 µM)
  MIC: 1 µg/mL (≈ 2.96 µM)
Staphylococcus aureus [5]
  MBC: 32 µg/mL (≈ 94.9 µM)
  MIC: 1 µg/mL (≈ 2.96 µM)
Staphylococcus aureus [6]
  MBC: 64 µg/mL (≈ 190 µM)
  MIC: 1 µg/mL (≈ 2.96 µM)
Streptococcus pneumoniae [7]
  MBC: 16 µg/mL (≈ 47.4 µM)
Staphylococcus aureus [8]
  MBC: > 64 µg/mL
  MIC: 64 µg/mL (≈ 190 µM)
Staphylococcus aureus [9]
  MBC: > 64 µg/mL
  MIC: 1 µg/mL (≈ 2.96 µM)
Staphylococcus aureus [10]
  MBC: 32 µg/mL (≈ 94.9 µM)
  MIC: 1 µg/mL (≈ 2.96 µM)
Staphylococcus aureus [11]
  MBC: 16 µg/mL (≈ 47.4 µM)
  MIC: 1 µg/mL (≈ 2.96 µM)
Staphylococcus aureus [12]
  MBC: 64 µg/mL (≈ 190 µM)
Enterococcus faecium
  MBC: 16 µg/mL (≈ 47.4 µM)
  MIC: 1 µg/mL (≈ 2.96 µM)
Streptococcus pneumoniae [13]
  MBC: 32 µg/mL (≈ 94.9 µM)
Listeria monocytogenes
  MBC: 16 µg/mL (≈ 47.4 µM)
  MIC: ≤ 0.5 µg/mL
Enterococcus faecalis
  MBC: 16 µg/mL (≈ 47.4 µM)
Staphylococcus aureus [3]
  MBC: 32 µg/mL (≈ 94.9 µM)
  MIC: 1 µg/mL (≈ 2.96 µM)
Staphylococcus aureus [14]
  MBC: 64 µg/mL (≈ 190 µM)
  MIC: 1 µg/mL (≈ 2.96 µM)

## C/C(=N\NC(=N)N)c1sc(-c2ccc(OCCCN3CCC3)cc2)nc1C
Escherichia coli [1]
  MIC: 64 µg/mL (≈ 166 µM)
Escherichia coli [2]
  MIC: > 64 µg/mL
Staphylococcus aureus [3]
  MIC: 8 µg/mL (≈ 20.7 µM)

## C/C(=N\NC(=N)N)c1sc(-c2ccc(OCCCN3CCC4CCCCC4C3)cc2)nc1C (stereo not drawn)
Escherichia coli [1]
  MIC: > 64 µg/mL
Escherichia coli [2]
  MIC: > 64 µg/mL
Staphylococcus aureus [3]
  MIC: 64 µg/mL (≈ 137 µM)

## C/C(=N\NC(=N)N)c1sc(-c2ccc(OCCCCCN3CCSC3)cc2)nc1C
Escherichia coli [1]
  MIC: > 64 µg/mL
Escherichia coli [2]
  MIC: > 64 µg/mL
Staphylococcus aureus [3]
  MIC: > 64 µg/mL

## C/C(=N\NC(=N)N)c1sc(-c2ccc(C#CCCN3CCN(C)CC3)cc2)nc1C
Escherichia coli [1]
  MIC: 32 µg/mL (≈ 75.5 µM)
Escherichia coli [2]
  MIC: > 64 µg/mL
Staphylococcus aureus [3]
  MIC: 16 µg/mL (≈ 37.8 µM)

## C/C(=N\NC(=N)N)c1sc(-c2ccc(OCCCCCN3CCCCCC3)cc2)nc1C
Escherichia coli [1]
  MIC: > 64 µg/mL
Escherichia coli [2]
  MIC: > 64 µg/mL
Staphylococcus aureus [3]
  MIC: > 64 µg/mL

## C/C(=N\NC(=N)N)c1sc(-c2ccc(C#CCCN3CCC4CCCCC4C3)cc2)nc1C (stereo not drawn)
Escherichia coli [1]
  MIC: > 64 µg/mL
Escherichia coli [2]
  MIC: > 64 µg/mL
Staphylococcus aureus [3]
  MIC: > 64 µg/mL

## C/C(=N\NC(=N)N)c1sc(-c2ccc(OCCCN3CCCCCC3)cc2)nc1C
Escherichia coli [1]
  MIC: > 64 µg/mL
Escherichia coli [2]
  MIC: > 64 µg/mL
Staphylococcus aureus [3]
  MIC: 64 µg/mL (≈ 149 µM)

## C/C(=N\NC(=N)N)c1sc(-c2ccc(OCCCCN3CCOCC3)cc2)nc1C
Escherichia coli [1]
  MIC: > 64 µg/mL
Escherichia coli [2]
  MIC: > 64 µg/mL
Staphylococcus aureus [3]
  MIC: > 64 µg/mL

## C/C(=N\NC(=N)N)c1sc(-c2ccc(OCCCCCn3ccnc3)cc2)nc1C
Escherichia coli [1]
  MIC: > 64 µg/mL
Escherichia coli [2]
  MIC: > 64 µg/mL
Staphylococcus aureus [3]
  MIC: > 64 µg/mL

## C/C(=N\NC(=N)N)c1sc(-c2ccc(OCCCCCN3CCCCC3C)cc2)nc1C (stereo not drawn)
Escherichia coli [1]
  MIC: 32 µg/mL (≈ 70.1 µM)
Escherichia coli [2]
  MIC: > 64 µg/mL
Staphylococcus aureus [3]
  MIC: 32 µg/mL (≈ 70.1 µM)

## C/C(=N\NC(=N)N)c1sc(-c2ccc(C#CCCN3CCCCCC3)cc2)nc1C
Escherichia coli [1]
  MIC: 64 µg/mL (≈ 151 µM)
Escherichia coli [2]
  MIC: > 64 µg/mL
Staphylococcus aureus [3]
  MIC: 8 µg/mL (≈ 18.9 µM)

## C/C(=N\NC(=N)N)c1sc(-c2ccc(OCCCCN3CCCC3)cc2)nc1C
Escherichia coli [1]
  MIC: > 64 µg/mL
Escherichia coli [2]
  MIC: > 64 µg/mL
Staphylococcus aureus [3]
  MIC: > 64 µg/mL

## C/C(=N\NC(=N)N)c1sc(-c2ccc(OCCCCN3CCCC(C)C3)cc2)nc1C (stereo not drawn)
Escherichia coli [1]
  MIC: > 64 µg/mL
Escherichia coli [2]
  MIC: > 64 µg/mL
Staphylococcus aureus [3]
  MIC: > 64 µg/mL

## C/C(=N\NC(=N)N)c1sc(-c2ccc(OCCCCCN3CCOCC3)cc2)nc1C
Escherichia coli [1]
  MIC: 32 µg/mL (≈ 72 µM)
Escherichia coli [2]
  MIC: > 64 µg/mL
Staphylococcus aureus [3]
  MIC: 32 µg/mL (≈ 72 µM)

## C/C(=N\NC(=N)N)c1sc(-c2ccc(OCCCCn3ccnc3)cc2)nc1C
Escherichia coli [1]
  MIC: 32 µg/mL (≈ 77.8 µM)
Escherichia coli [2]
  MIC: > 64 µg/mL
Staphylococcus aureus [3]
  MIC: 16 µg/mL (≈ 38.9 µM)
